Experimental data from patent US8986957B2, “Cell culture medium” (Novartis AG, priority 2010, dated 2015).

Columns and labels:
[1] = tested on: CHO cells expressing mAb3 and mAb4
Procedure: In a further set of experiments, choline chloride is added in various concentrations (40; 80; 120; 160, 200; 240; 500; 840; 1000; 3000 und 5000 mg/l in total) to powder growth medium. The media thus obtained are used for producing mAb3 and mAb4, respectively, generally as outlined above.
Normalized antibody concentrations, normalized viable cell densities, and viabilities, for mAb3 and in addition for mAb4 the normalized cell specific productivity for the whole duration of the cultivation (13 resp. 17 days) are further depicted in FIG. 14 to FIG. 24.

[2] = tested on: CHO cells expressing mAb3; conditions: higher concentrations of choline chloride in production medium vs standard 240 mg/L
Procedure: Three aliquots of this parental cell line are transfected to express three different monoclonal antibodies mAb1, mAb2, mAb3, respectively.
All nine shake flasks (three for each experiment) are run under the same conditions, except for the medium. The conditions involve a fed-batch culture with two daily bolus feeds starting at days 3 and 5 with a feeding rate of 2 and 0.4% of the initial culture volume per day; a temperature shift from 36.5° C. to 33° C. at day 5; 10% CO2 in the incubator; a shaking rate of 150 rpm (stroke radius=25 mm). The cell growth/viability of the cells as well as the resulting titer of recombinant antibody expressed are determined.

[3] = choline chloride 3000 mg/l and more

## C[N+](C)(C)CCO.[Cl-] [choline chloride]
[1]; 40 mg/l choline chloride in total, after 13 or 17 days in culture
  viability and antibody concentration: lowest values
[1]; all choline concentrations higher than 40 mg/l
  viability: higher
[1]; [3]
  cell growth: do not grow
  viability of the cells: do not negatively affect the viability
[1]; choline chloride 3000 mg/l and more, after 13 or 17 days
  normalized antibody concentration: below 1
[2]
  cell growth or polypeptide titer: did not result in improved cell growth or polypeptide titer
